Measured values published in US20100048699A1, “CHEMICAL COMPOUNDS” (SYNGENTA CROP PROTECTION, INC., priority 2006, published 2010).

Experiments:
Myzus persicae [1] = test: Myzus persicae (green peach aphid) sunflower leaf disc spray test; conditions: foliar, 144 h, read-out: control of Myzus persicae
Myzus persicae [2] = test: Myzus persicae (green peach aphid) pea seedling root uptake test; conditions: 144 h, read-out: control of Myzus persicae
Tetranychus urticae = Tetranychus urticae (two-spotted spider mite) bean leaf disc spray test; conditions: foliar, 192 h, read-out: control of Tetranychus urticae

O=C(OCCNC(=S)NC1CCc2c(F)cccc21)OCc1ccc([N+](=O)[O-])cc1 (stereo not drawn) [Compound 11.030]
≥ 80%: pest or weed control at 200 ppm (Myzus persicae [1]) | pest or weed control at 24 ppm (Myzus persicae [2]) | pest or weed control at 200 ppm (Tetranychus urticae)

O=C(OCCNC(=S)NC1CCc2c(F)cccc21)c1ccc(F)c(C(F)(F)F)c1 (stereo not drawn) [Compound 11.035]
≥ 80%: pest or weed control at 200 ppm (Myzus persicae [1]) | pest or weed control at 24 ppm (Myzus persicae [2]) | pest or weed control at 200 ppm (Tetranychus urticae)

CCCC(C(=O)OCCNC(=S)NC1CCc2c(F)cccc21)c1ccc(Cl)cc1Cl (stereo not drawn) [Compound 11.040]
≥ 80%: pest or weed control at 200 ppm (Myzus persicae [1]) | pest or weed control at 24 ppm (Myzus persicae [2]) | pest or weed control at 200 ppm (Tetranychus urticae)

Cc1cc(C(=O)OCCNC(=S)NC2CCc3c(F)cccc32)c(C(F)(F)F)o1 (stereo not drawn) [Compound 11.044]
≥ 80%: pest or weed control at 200 ppm (Myzus persicae [1]) | pest or weed control at 24 ppm (Myzus persicae [2]) | pest or weed control at 200 ppm (Tetranychus urticae)

COc1cc(C(=O)OCCNC(=S)NC2CCc3c(F)cccc32)cc(Cl)n1 (stereo not drawn) [Compound 11.047]
≥ 80%: pest or weed control at 200 ppm (Myzus persicae [1]) | pest or weed control at 24 ppm (Myzus persicae [2]) | pest or weed control at 200 ppm (Tetranychus urticae)

O=C(/C=C/c1cccc(C(F)(F)F)c1)OCCNC(=S)NC1CCc2c(F)cccc21 (stereo not drawn) [Compound 11.048]
≥ 80%: pest or weed control at 200 ppm (Myzus persicae [1]) | pest or weed control at 24 ppm (Myzus persicae [2]) | pest or weed control at 200 ppm (Tetranychus urticae)

CCC(Oc1ccccc1)C(=O)OCCNC(=S)NC1CCc2c(F)cccc21 (stereo not drawn) [Compound 11.051]
≥ 80%: pest or weed control at 200 ppm (Myzus persicae [1]) | pest or weed control at 24 ppm (Myzus persicae [2]) | pest or weed control at 200 ppm (Tetranychus urticae)

C/C(=C\c1ccccc1)C(=O)OCCNC(=S)NC1CCc2c(F)cccc21 (stereo not drawn) [Compound 11.053]
≥ 80%: pest or weed control at 200 ppm (Myzus persicae [1]) | pest or weed control at 24 ppm (Myzus persicae [2]) | pest or weed control at 200 ppm (Tetranychus urticae)

O=C(OCCNC(=S)NC1CCc2c(F)cccc21)C1Cc2ccccc2O1 (stereo not drawn) [Compound 11.055]
≥ 80%: pest or weed control at 200 ppm (Myzus persicae [1]) | pest or weed control at 24 ppm (Myzus persicae [2]) | pest or weed control at 200 ppm (Tetranychus urticae)

O=C(OCCNC(=S)NC1CCc2c(F)cccc21)c1ccc(Cl)c([N+](=O)[O-])c1 (stereo not drawn) [Compound 11.058]
≥ 80%: pest or weed control at 200 ppm (Myzus persicae [1]) | pest or weed control at 24 ppm (Myzus persicae [2]) | pest or weed control at 200 ppm (Tetranychus urticae)

O=C(NCCOC(=O)c1cnn(-c2ccccc2)c1C(F)(F)F)NC1CCc2c(F)cccc21 (stereo not drawn) [Compound 11.059]
≥ 80%: pest or weed control at 200 ppm (Myzus persicae [1]) | pest or weed control at 24 ppm (Myzus persicae [2]) | pest or weed control at 200 ppm (Tetranychus urticae)

Cc1ccccc1CC(=O)OCCNC(=S)NC1CCc2c(F)cccc21 (stereo not drawn) [Compound 11.060]
≥ 80%: pest or weed control at 200 ppm (Myzus persicae [1]) | pest or weed control at 24 ppm (Myzus persicae [2]) | pest or weed control at 200 ppm (Tetranychus urticae)

O=C(Cc1ccccc1F)OCCNC(=S)NC1CCc2c(F)cccc21 (stereo not drawn) [Compound 11.062]
≥ 80%: pest or weed control at 200 ppm (Myzus persicae [1]) | pest or weed control at 24 ppm (Myzus persicae [2]) | pest or weed control at 200 ppm (Tetranychus urticae)

O=C(Cc1ccc(F)cc1)OCCNC(=S)NC1CCc2c(F)cccc21 (stereo not drawn) [Compound 11.063]
≥ 80%: pest or weed control at 200 ppm (Myzus persicae [1]) | pest or weed control at 24 ppm (Myzus persicae [2]) | pest or weed control at 200 ppm (Tetranychus urticae)

O=C(Cc1cccc(C(F)(F)F)c1)OCCNC(=S)NC1CCc2c(F)cccc21 (stereo not drawn) [Compound 11.065]
≥ 80%: pest or weed control at 200 ppm (Myzus persicae [1]) | pest or weed control at 24 ppm (Myzus persicae [2]) | pest or weed control at 200 ppm (Tetranychus urticae)

Cc1c(C(=O)OCCNC(=S)NC2CCc3c(F)cccc32)ncn1C(C)(C)C (stereo not drawn) [Compound 11.070]
≥ 80%: pest or weed control at 200 ppm (Myzus persicae [1]) | pest or weed control at 24 ppm (Myzus persicae [2]) | pest or weed control at 200 ppm (Tetranychus urticae)
